Experimental data published in patent US5523315A, “N-(hydroxyethyl)butanediamide derivatives” (Bio-Mega/Boehringer Ingelheim Research Inc., priority 1993, dated 1996).

Biological target: T1, human renin (Homo sapiens, UniProt P00797)
T1 construct: A human plasma pool is used as the source of both the substrate (angiotensinogen) and the enzyme (renin); from tissue; host or cells: pooled human plasma
T1 sequence (P00797 67-406): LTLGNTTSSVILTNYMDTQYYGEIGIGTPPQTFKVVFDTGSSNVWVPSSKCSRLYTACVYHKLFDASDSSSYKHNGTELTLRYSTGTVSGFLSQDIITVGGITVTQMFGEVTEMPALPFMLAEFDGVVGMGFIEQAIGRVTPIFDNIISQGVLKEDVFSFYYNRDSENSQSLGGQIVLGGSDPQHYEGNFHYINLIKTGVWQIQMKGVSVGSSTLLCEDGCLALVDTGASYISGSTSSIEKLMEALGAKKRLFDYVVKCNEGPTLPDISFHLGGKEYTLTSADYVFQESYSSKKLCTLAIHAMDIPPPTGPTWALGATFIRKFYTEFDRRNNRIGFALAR
Assay: plasma renin assay (inhibition of human renin; angiotensin I generated, measured by radioimmunoassay)
Format: biochemical
Conditions: human plasma pool, pH 6.0, 2 h incubation at 37°
Procedure: The assay is performed as follows: The test compound (i.e. the inhibitor) is dissolved in dimethylsulfoxide (1 mM stock solution) and diluted with an aqueous buffer solution of 270 mM 2-(N-morpholino)ethanesulfonic acid and 1% human serum albumin (pH 5.85, also containing dimercaprol and 8-hydroxyquinoline sulfate in accordance with the instructions of the RIA kit noted below) to give an assay mixture in which the final dimethylsulfoxide content is 1% (v/v).
A human plasma pool is used as the source of both the substrate (angiotensinogen) and the enzyme (renin). The reaction is initiated by the addition of 50 μL of human plasma pool to 50 μL of various concentrations of inhibitor in the 1% dimethylsulfoxide assay buffer. The plasma renin activity is measured by the amount of angiotensin I generated at pH 6.0 following a 2 h incubation at 37°.
Quantitation of angiotensin I is performed by radioimmunoassay (RIA kit from New England Nuclear-Dupont, Mississauga, ON, Canada). The enzymatic activity of renin is expressed in ng of angiotensin I generated (/mL/2 h). The extent of inhibition of the reaction is determined from the amount of angiotensin I generated in reference to a control prepared without inhibitor. Nonlinear regression analysis is used to calculate the IC50 values, i.e. the molar concentration of the test compound required to cause a 50% inhibition of the enzyme activity.

IC50 | Structure (SMILES)
95 nM | CC(C)C[C@H](O)[C@H](O)[C@H](CC1CCCCC1)NC(=O)[C@@H](CC(=O)N[C@@H](CO)[C@@H](O)c1ccccc1)CC1CC1 [Compound 18, N^4-[2(S)-hydroxy-1(S)-(hydroxymethyl)-2-phenylethyl]-N^1-[1(S)-(cyclohexylmethyl)-2(R),3(S)-dihydroxy-5-methylhexyl]-2(R)-(cyclopropylmethyl)butanediamide]
74 nM | CC(C)C[C@H](O)[C@H](O)[C@H](CC1CCCCC1)NC(=O)[C@@H](CC(=O)NCC(O)c1ccccc1)CC1CC1 (stereo partly drawn) [Compound 10, N^4-(R,S)-(2-hydroxy-2-phenylethyl)-N^1-[1(S)-(cyclohexylmethyl)-2(R),3(S)-dihydroxy-5-methylhexyl]-2(R)-(cyclopropylmethyl)butanediamide]
26 nM | CC(C)C[C@H](O)[C@H](O)[C@H](CC1CCCCC1)NC(=O)[C@@H](CC(=O)N(Cc1cccnc1)CC1(O)CCCCC1)CC1CC1 [Compound 26, N^4-[(1-hydroxycyclohexyl)methyl]-N^4-(3-pyridinylmethyl)-N^1-[1(S)-(cyclohexylmethyl)-2(R),3(S)-dihydroxy-5-methylhexyl]-2(R)-(cyclopropylmethyl)butanediamide]
53 nM | CC(C)C[C@H](O)[C@H](O)[C@H](CC1CCCCC1)NC(=O)[C@@H](CC(=O)N(CCc1ccccn1)CC1(O)CCCCC1)CC1CC1 [Compound 7, N^4-[(1-hydroxycyclohexyl)methyl]-N^4-[2-(2-pyridinyl)ethyl]-N^1-[1(S)-(cyclohexylmethyl)-2(R),3(S)-dihydroxy-5-methylhexyl]-2(R)-(cyclopropylmethyl)butanediamide]
1 nM | CC(C)C[C@H](O)[C@H](O)[C@H](CC1CCCCC1)NC(=O)[C@@H](CC(=O)N(CC(=O)N(C)C)CC1(O)CCCCCCC1)Cc1csc(N)n1 [Compound 56, N^4-[(1-hydroxycyclooctyl)methyl]-N^4-[2-(dimethylamino)-2-oxoethyl]-N^1-[1(S)-(cyclohexylmethyl)-2(R),3(S)-dihydroxy-5-methylhexyl]-2(R)-[(2-amino-4-thiazolyl)methyl]butanediamide]
37 nM | CC(C)C[C@H](O)[C@H](O)[C@H](CC1CCCCC1)NC(=O)[C@@H](CC(=O)N[C@@H](CO)CC1CCCCC1)Cc1cscn1 [Compound 45]
16 nM | CC(C)C[C@H](O)[C@H](O)[C@H](CC1CCCCC1)NC(=O)[C@@H](CC(=O)N(CCO)CC1(O)CCCCC1)Cc1cscn1 [Compound 37, N^4-[(1-hydroxycyclohexyl)methyl]-N^4-(2-hydroxyethyl)-N^1-[1(S)-(cyclohexylmethyl)-2(R),3(S)-dihydroxy-5-methylhexyl]-2(R)-(4-thiazolylmethyl)butanediamide]
1.6 nM | CC(C)C[C@H](O)[C@H](O)[C@H](CC1CCCCC1)NC(=O)[C@@H](CC(=O)N(CC(=O)N(C)C)CC1(O)CCCCC1)Cc1cscn1 [Compound 34, N^4-[(1-hydroxycyclohexyl)methyl]-N^4-[2-(dimethylamino)-2-oxoethyl]-N^1-[1(S)-(cyclohexylmethyl)-2(R),3(S)-dihydroxy-5-methylhexyl]-2(R)-(4-thiazolylmethyl)butanediamide]
2 nM | CC(=O)CN(CC1CCCCC1)C(=O)C[C@@H](Cc1cscn1)C(=O)N[C@@H](CC1CCCCC1)[C@@H](O)[C@@H](O)CC(C)C [Compound 60, N^4-(cyclohexylmethyl)-N^4-(2-oxopropyl)-N^1-[1(S)-(cyclohexylmethyl)-2(R),3(S)-dihydroxy-5-methylhexyl]-2(R)-(4-thiazolylmethyl)butanediamide]
1.8 nM | CC(C)C[C@H](O)[C@H](O)[C@H](CC1CCCCC1)NC(=O)[C@@H](CC(=O)N(CC(=O)N(C)C)CC1(O)CCCCC1)Cc1c[nH]cn1 [Compound 24, N^4-[(1-hydroxycyclohexyl)methyl]-N^4-[2-(dimethylamino)-2-oxoethyl]-N^1-[1(S)-(cyclohexylmethyl)-2(R),3(S)-dihydroxy-5-methylhexyl]-2(R)-(1H-imidazol-4-ylmethyl)-butanediamide]
15 nM | CC(C)C[C@H](O)[C@H](O)[C@H](CC1CCCCC1)NC(=O)[C@@H](CC(=O)N(Cc1ccccc1)CC1(O)CCCCC1)Cc1cscn1 [Compound 27, N^4-benzyl-N^4-[ (1-hydroxycyclohexyl)methyl]-N^1-[1(S)-(cyclohexylmethyl)-2(R),3(S)-dihydroxy-5-methylhexyl]-2(R)-(4-thiazolylmethyl)butanediamide]
115 nM | CC(C)C[C@H](O)[C@H](O)[C@H](CC1CCCCC1)NC(=O)[C@@H](CC(=O)NC[C@H](O)C1CCCCC1)CC1CC1 [Compound 20 (R), N^4-(R)-(2-cyclohexyl-2-hydroxyethyl)-N^1-[1(S)-(cyclohexylmethyl)-2(R),3(S)-dihydroxy-5-methylhexyl]-2(R)-(cyclopropylmethyl)butanediamide]
7 nM | CC(C)C[C@H](O)[C@H](O)[C@H](CC1CCCCC1)NC(=O)[C@@H](CC(=O)N(CC1CCCC1)CC(C)(C)O)Cc1csc(N)n1 [Compound 47, N^4-(cyclopentylmethyl)-N^4-(2-hydroxy-2-methylpropyl)-N^1-[1(S)-(cyclohexylmethyl)-2(R),3(S)-dihydroxy-5-methylhexyl]-2(R)-[(2-amino-4-thiazolyl)methyl]butanediamide]
14 nM | CC(C)C[C@H](O)[C@H](O)[C@H](CC1CCCCC1)NC(=O)[C@@H](CC(=O)N(CC1CCCCC1)CC(C)(C)O)Cc1c[nH]cn1 [Compound 43, N^4-(cyclohexylmethyl)-N^4-(2-hydroxy-2-methylpropyl)-N^1-[1(S)-(cyclohexylmethyl)-2(R),3(S)-dihydroxy-5-methylhexyl]-2(R)-(1H-imidazol-4-ylmethyl)butanediamide]
170 nM | CC(C)C[C@H](O)[C@H](O)[C@H](CC1CCCCC1)NC(=O)[C@@H](CC(=O)NCC(O)c1ccccn1)CC1CC1 (mixture of isomers) [Compound 22, N^4-[2(R,S)-hydroxy-2-(2-pyridinyl)ethyl]-N^1-[1(S)-(cyclohexylmethyl)-2(R),3(S)-dihydroxy-5-methylhexyl]-2(R)-(cyclopropylmethyl)butanediamide]
21 nM | CC(C)C[C@H](O)[C@H](O)[C@H](CC1CCCCC1)NC(=O)[C@@H](CC(=O)N(Cc1ccco1)CC(C)(C)O)Cc1csc(N)n1 [Compound 55, N^4-(2-furanylmethyl)-N^4-(2-hydroxy-2-methylpropyl)-N^1-[1(S)-(cyclohexylmethyl)-2(R),3(S)-dihydroxy-5-methylhexyl]-2(R)-[(2-amino-4-thiazolyl)methyl]butanediamide]
16 nM | CC(C)C[C@H](O)[C@H](O)[C@H](CC1CCCCC1)NC(=O)[C@@H](CC(=O)N(CC(=O)N(C)C)CC1(O)CCCCC1)CC1CC1 [Compound 23, N^4-[(1-hydroxycyclohexyl)methyl]-N^4-[2-(dimethylamino)-2-oxoethyl]-N^1-[1(S)-(cyclohexylmethyl)-2(R),3(S)-dihydroxy-5-methylhexyl]-2(R)-(cyclopropylmethyl)butanediamide]
46 nM | CC(C)C[C@H](O)[C@H](O)[C@H](CC1CCCCC1)NC(=O)[C@@H](CC(=O)N(CC1CCCCC1)CC(C)(C)O)CC1CC1 [Compound 32, N^4-(cyclohexylmethyl)-N^4-(2-hydroxy-2-methylpropyl)-N^1-[1(S)-(cyclohexylmethyl)-2(R),3(S)-dihydroxy-5-methylhexyl]-2(R)-(cyclopropylmethyl)butanediamide]
5 nM | CC(C)C[C@H](O)[C@H](O)[C@H](CC1CCCCC1)NC(=O)[C@@H](CC(=O)N(CC1CCCCCC1)CC(C)(C)O)Cc1csc(N)n1 [Compound 48, N^4-(cycloheptylmethyl)-N^4-(2-hydroxy-2-methylpropyl)-N^1-[1(S)-(cyclohexylmethyl)-2(R),3(S)-dihydroxy-5-methylhexyl]-2(R)-[(2-amino-4-thiazolyl)methyl]butanediamide]
26 nM | CC(C)C[C@H](O)[C@H](O)[C@H](CC1CCCCC1)NC(=O)[C@@H](CC(=O)N(Cc1ccccc1)CC(C)(C)O)Cc1csc(N)n1 [Compound 54, N^4-benzyl-N^4-(2-hydroxy-2-methylpropyl)-N^1-[1(S)-(cyclohexylmethyl)-2(R),3(S)-dihydroxy-5-methylhexyl]-2(R)-[(2-amino-4-thiazolyl)methyl]-butanediamide]
7.1 nM | CC(C)C[C@H](O)[C@H](O)[C@H](CC1CCCCC1)NC(=O)[C@@H](CC(=O)N(CC1CCCCC1)CC(C)(C)O)Cc1cscn1 [Compound 36, N^4-(cyclohexylmethyl)-N^4-(2-hydroxy-2-methylpropyl)-N^1-[1(S)-(cyclohexylmethyl)-2(R),3(S)-dihydroxy-5-methylhexyl]-2(R)-(4-thiazolylmethyl)butanediamide]
